Assay results taken from patent US20080119412A1, “Polypeptides for Modulating Binding of Trp Channel Proteins and Trp- Associated Proteins” (NoNO Inc., priority 2003, published 2008).
Residues, ends and D or L forms follow the SMILES beside them. *: point of attachment. Biotin = O=C1N[C@H]2[C@H](CS[C@H]2CCCCC(=O)*)N1

Molecular target: T1, Mint1 d2 (Homo sapiens, UniProt Q02410)
T1 construct: made in house; host or cells: E. coli (DH5alpha, BL21 or JM109)
T1 sequence (Q02410 with tags, fused parts or gaps): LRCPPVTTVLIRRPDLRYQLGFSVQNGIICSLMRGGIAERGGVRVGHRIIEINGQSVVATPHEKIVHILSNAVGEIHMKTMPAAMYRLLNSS
Assay: G3 assay titration, GST-PDZ fusion / biotinylated peptide
Assay type: binding
Experimental: The G3 assay is identical to the G0 assay with the following exceptions. The peptides are typically present at 0.1 μM rather than 20 μM. The peptides are also pre-incubated with the HRP-streptavidin prior to adding to the assay plate. In the G0 assay, free peptide is incubated with the PDZ proteins prior to the addition of the HRP-streptavidin. Thus, for the G0 assay one can lose signal if the bound peptide dissociates from the PDZ protein prior to the addition of the HRP-streptavidin. In the G3 modified assay the HRP-streptavidin/peptide complex is added to the plate in one step, thus increasing the likelihood that all the bound peptide will be bound to HRP-streptavidin. The G3 modified assay increases the chance of observing weak interactions.
This example describes assays to identify binding between TRPM7 and PDZ domains. GST-PDZ fusions are produced that each contain an entire PDZ domain (or multiple PDZ domains), the collection encompassing approximately 90% of all PDZ domains identified in the human genome. (See Table 5 and Section V (PDZ Proteins and PL Protein Interactions Disclosure). Biotinylated peptide corresponding to 11 residues of Tat coupled to the C-terminal 9 amino acids of TRPM7 ([…]; SEQ ID NO:258) is synthesized and purified by HPLC.
• Nunc MaxiSorp 96 well Immuno-plate, Nunc • PBS pH 7.4 (phosphate buffered saline, 8 g NaCl, 0.29 g KCl, 1.44 g Na2HPO4, 0.24 g KH2PO4, add H2O to 1 liter and pH 7.4; 0.2 μm filter) • Assay Buffer: 2% BSA in PBS (20 g of bovine serum albumin per liter PBS, fraction V, ICN Biomedicals, cat#IC15142983 • Goat anti-GST polyclonal Ab, stock 5 mg/ml, stored at 4° C., Amersham Pharmacia cat#27-4577-01 • Dilute 1:1000 in PBS, final concentration 5 μg/ml. • HRP-Streptavidin, 2.5 mg/2 ml stock stored at 4° C., Zymed cat#43-4323, dilute 1:2000 into Assay buffer, final concentration of […] • Wash Buffer, PBS • Biotinylated peptides (HPLC purified, stock solution stored in −20° C. freezer) • GST-PRISM proteins (stock stored at −80° C., after 1st thaw store in −10° C. freezer) • TMB (3,3′,5,5′, teramethylbensidine), tablets, Sigma cat.#T5525 • Per plate, dissolve 1 tablet in 1 ml DMSO, add 9 ml Citrate/Phosphate buffer pH 5.4 and 2 μL H2O2 • 0.1 M H2SO4, Sigma cat.#S1526 • 12-w multichannel pipettor & tips • 50 ml reagent reservoirs, Costar#4870 • 50, 15 ml polypropylene conical tubes • Costar Transtar 96 Costar #7605 • Transtar 96 Cartridge Costar #7610 • Molecular Devices microplate reader (450 & 650 nm filters) with SoftMax Pro software *When using reagents stored at or 4° C. or −20° C., remove & keep on ice
• 1. Coat plate with 100 μl of 5 μg/ml anti-GST, overnight at 4° C. • 2. Dump contents of plate & out tap dry on paper towels • 3. Block with 200 μl Assay Buffer for 2 hrs at room temperature • 4. Prepare proteins at 5 μg/ml in Assay Buffer • 5. Wash 3× with cold PBS (4° C.), avoiding letting the plates dry out • 6. Add proteins at 50 μl per well, incubate 1 to 2 hrs at 4° C. • 7. Prepare peptides to desired concentration in Assay Buffer • 8. Wash 3× with cold PBS (4° C.), avoiding letting the plates dry out • 9. Add HRP-Streptavidin/peptide complex [prepared by incubating for 20 minutes at room temperature HRP-Streptavidin (1:2000) with the desired biotin-peptide concentration for 20 minutes at room temperature] at 50 μl per well on ice • 10. Place at room temperature for exactly 30 minutes • 11. Promptly wash 5× with PBS at room temperature • 12. Add 100 μl/well TMB substrate (write time on plate) • 13. Incubate in dark at room temperature for a maximum of 30 minutes • 14. Read plate at 25 minutes (650 nm), optional • 15. Stop reaction with 100 μl of 0.18 M H2SO4, 30 minutes after adding TMB • Take last reading at 450 nm soon after stopping reaction
The G3 assay was performed on a subset of the PDZ domains as in Example II except that the concentration of peptide was 0.002 μM, […], 0.1 μM, 0.2 μM, 1 μM, and 2 μM. Data was fitted to the equation: […]

SMILES: CSCC[C@H](NC(=O)[C@H](CC(C)C)NC(=O)[C@H](CCCNC(=N)N)NC(=O)[C@@H](NC(=O)[C@H](CO)NC(=O)[C@H](CC(N)=O)NC(=O)[C@@H](NC(=O)[C@H](CO)NC(=O)[C@H](CCCNC(=N)N)NC(=O)[C@H](CCCNC(=N)N)NC(=O)[C@H](CCCNC(=N)N)NC(=O)[C@H](CCC(N)=O)NC(=O)[C@H](CCCNC(=N)N)NC(=O)[C@H](CCCNC(=N)N)NC(=O)[C@H](CCCCN)NC(=O)[C@H](CCCCN)NC(=O)[C@H](CCCNC(=N)N)NC(=O)CNC(=O)[C@H](Cc1ccc(O)cc1)NC(=O)CCCC[C@@H]1SC[C@@H]2NC(=O)N[C@@H]21)[C@@H](C)O)C(C)C)C(=O)N[C@@H](CC(C)C)C(=O)O [Tat-TRPM7 peptide] (Biotin-YGRKKRRQRRRSTNSVRLML-OH)
- EC50: < 2 µM
